“Also recorded” adds a separate entry of the source. Ends that are not written are not given here.
Assays:
[1] = system: ERK phosphorylation in PC3-101P3A11 cells; assay: ERK phosphorylation in PC3-101P3A11 and PC3-neo cells (anti-Phospho-ERK Western blot); format: cell-based, human; details: for inhibition of ERK phosphorylation and activation: PC3-101P3A11 and 3T3-101P3A11 cells, FBS
Procedure: Using Western blotting and other techniques, the ability of 101P3A11 to regulate these pathways is confirmed. Cells expressing or lacking 101P3A11 are either left untreated or stimulated with cytokines, androgen and anti-integrin antibodies. Cell lysates were analyzed using anti-phospho-specific antibodies (Cell Signaling, Santa Cruz Biotechnology) in order to detect phosphorylation and regulation of ERK, p38, AKT, PI3K, PLC and other signaling molecules. […] In the experiment, data shown in FIG. 26, control 3T3-neo and 3T3-101P3A11 cells were either treated with 0.5 or 10% FBS and whole cell lysates were analyzed by anti-phosphotyrosine Western blotting.
In this experiment, control PC3-neo cells and PC3-101P3A11 cells were left untreated (0.1% FBS) or were stimulated with 10% FBS, lipophosphatidic acid (LPA), gastrin releasing peptide (GRP), leukotriene (LKB4) or platelet activating factor (PAF). The cells were lysed and analyzed by Western blotting using anti-Phospho-ERK (FIG. 27A) or anti-ERK (FIG. 27B) mAb. […] In order to delineate the signaling pathway by which 101P3A11 mediates ERK phosphorylation in cancer cells, it was confirmed which of the two pathway inhibitors: MEK inhibitor PD98059 or the p38 inhibitor SB203580 regulate 101P3A11 mediated ERK phosphorylation (FIG. 28). […] Cells were lysed and analyzed by Western blotting using anti-Phospho-ERK or anti-ERK mAb. Treatment with 10% FBS or with GRP induced the phosphorylation of ERK in PC3-101P3A11 but not in control PC3-neo cells. 101P3A11-mediated ERK phosphorylation was inhibited by the MEK-1 inhibitor PD98059 but not the p38 inhibitor SB203580 or genistein.
Results in FIGS. 26-28 indicate that 101P3A11 regulates the activity of kinases, including ERK, and phosphatases. In order to confirm the association of 101P3A11 with phosphatase activity, the effect of the protein phosphatase inhibitor sodium orthovanadate on 101P3A11 mediated ERK phosphorylation was determined (FIG. 29). PC3-neo and PC3-101P3A11 cells were grown in media alone or in the presence of sodium orthovanadate (Na3VO4), and were stimulated with 0.1% or 10% FBS. Cells were lysed and analyzed by Western blotting using anti-Phospho-ERK or anti-ERK mAb. […] Results in FIG. 29 confirm the contribution of protein phosphatases to 101P3A11 mediated signaling.
In order to determine whether 101P3A11 signaling results in the activation of EGFR, we compared the effect of the EGFR inhibitor, AG1517, on EGFR- and 101P3A11-mediated ERK phosphorylation (FIG. 30). In FIG. 30, PC3-neo and PC3-101P3A11 cells were grown in media alone (0.1% FBS) or in the presence of AG1517. The cells were stimulated with 0.1% or 10% FBS, GRP or EGF, lysed and analyzed by Western blotting using anti-Phospho-ERK or anti-ERK mAb. Treatment with 10% FBS, GRP and EGF induced ERK phosphorylation in PC3-101P3A11 cells. […] Data in FIG. 30 indicate that some cross talk occurred between 101P3A11 and EGFR signaling pathways.
(§1) Since adenylate cyclase activity modulates intracellular levels of cAMP and induce downstream signaling events such as activation of protein kinase A, calcium and ERK MAPK signaling (Pierce K. L., et al, Oncogene. 2001, 20: 1532), we determined that PTX, an inhibitor of adenylate cyclase signaling, prevents 101P3A11-mediated ERK phosphorylation along with inhibiting cAMP accumulation (FIG. 33 and FIG. 34). PC3-neo and PC3-101P3A11 cells were grown overnight in 0.1% FBS in media alone or in the presence of pertussis toxin (PTX). Cells were stimulated with 0.1% or 10% FBS (FIG. 33) or 10% FBS, EGF or GRP (FIG. 34). Cells were lysed and analyzed by Western blotting using anti-Phospho-ERK mAb. Expression of 101P3A11 mediated ERK phosphorylation by 10% FBS in PC3 cells, which was inhibited by PTX (FIG. 33 and FIG. 34).
GPCR transmit their signal by activating trimeric G proteins. […]

LAPC-9 cells = assay: Androgen regulation in LAPC-9 cells (Northern blot); format: cell-based; details: charcoal-stripped medium
Procedure: In order to assay for androgen regulation of 101P3A11 expression, LAPC-9 cells were grown in charcoal-stripped medium and stimulated with the synthetic androgen mibolerone, for either 14 or 24 hours (FIG. 15A, FIG. 15B, and FIG. 15C). Northern blots with 10 μg of total RNA/lane were probed with the 101P3A11 sequences (FIG. 15A). A picture of the ethidium-bromide staining of the RNA gel is also presented (FIG. 15C). […] The experimental samples were confirmed by testing for the expression of the androgen-regulated prostate cancer gene PSA (FIG. 15B).

3T3-101P3A11 cells = assay: Proliferation of 3T3 and 3T3-101P3A11 cells (Alamar blue); format: cell-based; details: for effect on proliferation: control 3T3 cells
PC3-101P3A11 cells = assay: Proliferation of PC3-101P3A11 and PC3-neo cells; format: cell-based, human; details: PC3-101P3A11 cells grown in 5% FBS
Procedure: as §1
GPCR transmit their signal by activating trimeric G proteins. Once GPCRs are activated, the associated Ga subunit binds GTP, dissociates from the receptor and participates in downstream signaling events (Schild, D., and Restrepo, D. Physiol Rev. 1998, 78:429-66). In order to determine that inhibition of Ga subunits has an effect on 101P3A11 mediated cell growth, the effect of two Ga inhibitors on the proliferation of 3T3-101P3A11 cells was investigated. Control 3T3 and 3T3-101P3A11 cells were grown in the presence or absence of suramin or its derivative NF 449 (Sigma). Cells were analyzed for proliferation 72 hours later (FIG. 35). The experiment was performed in triplicate. […] This response was 101P3A11 specific as suramin and NF449 had no effect on the proliferation of control 3T3 cells. Similarly, inhibition of G protein activation by suramin and NF449 in PC3 cells inhibits the proliferation of PC3-101P3A11 cells grown in 5% FBS (Figure M4). […] This ERK phosohorylation and activation was inhibited by suramin and NF449 in PC3-101P3A11 and 3T3-101P3A11 cells. ERK phosphorylation was inhibited in a dose dependent manner in PC3-101P3A11 cells treated with suramin. […]

3T3-101P3A11 tumors = assay: Subcutaneous growth of 3T3-101P3A11 tumors in SCID mice; format: in vivo
Procedure: (2) Regulated expression under control of an inducible vector system, such as ecdysone, tet, etc., can be used provided such promoters are compatible with the host cell systems. […] FIG. 21 compares subcutaneous growth of control 3T3-neo and 3T3-101P3A11 cells. One million cells stably expressing neo or 101P3A11 were injected subcutaneously in SCID mice along with matrigel. Tumor volume was evaluated by caliper measurements. […] Additionally, SCID mice were implanted with the same 3T3-101P3A11 cells orthotopically in the prostate to determine if 101P3A11 has an effect on local growth in the prostate or on the ability of the cells to metastasize, specifically to lungs or lymph nodes. […] In an analogous manner, cells can be implanted orthotopically in the bladder, colon or kidney. (Saffran, D., et al., PNAS 10:1073-1078; Fu, X., et al., Int. J. Cancer, 1991, 49: p. 938-939; Chang, S., et al., Anticancer Res., 1997, 17: p. 3239-3242; Peralta, E. A., et al., J. Urol., 1999, 162: p. 1806-1811). The tumor enhancing effect of 101P3A11 was also observed when 101P3A11 is expressed in prostate cancer cells such as PC3 and introduced into the prostate of SCID mice (Figure M11). A 2.5 fold increase in tumor weight is observed in tumors expressing 101P3A11 relative to control cells.
Furthermore, these assays is useful to confirm the anti-101P3A11 inhibitory effects of candidate therapeutic compositions, such as for example, 101P3A11 antibodies or intrabodies, and 101P3A11 antisense molecules or ribozymes, or 101P3A11 directed small molecules. In FIG. 22, we depict the effect of a small molecule, pertussis toxin (PTX) on tumor formation by 3T3-101P3A11 cells. In this experiment, SCID mice were injected with 3T3-101P3A11 alone or in conjunction with PTX. Each mouse was given 5 doses of PTX at 3-4 days interval. Tumor volume was evaluated by caliper measurements. […] Similarly, treatment with the G-protein inhibitor suramin inhibits the growth of 3T3-101P3A11 tumors (Figure M13).

[2] = 101P3A11 expressing 3T3 cells, Alamar blue after 72 hours

gastrin releasing peptide (VPLPAGGGTVLTKMYPRGNHWAVGHLM; ends and bridges not checked; UniProt P07492 24-50, looked up) [GRP, GPCR ligand]
ERK phosphorylation by GPCR ligands ([1]; PC3-101P3A11 cells): significant ERK phosphorylation

CCCCC/C=C\C[C@@H](O)/C=C/C=C/C=C\[C@@H](O)CCCC(=O)O [LKB4, leukotriene]
ERK phosphorylation by GPCR ligands ([1]; PC3-101P3A11 cells): more modest level of ERK phosphorylation

C[C@@H]1CC2=CC(=O)CC[C@@H]2[C@H]2CC[C@@]3(C)[C@@H](CC[C@]3(C)O)[C@@H]21 [mibolerone]
expression of PSA (LAPC-9 cells; 14 and 24 hours): induced | expression of 101P3A11 (LAPC-9 cells; 14 or 24 hours): not regulated

O=C(Nc1cc(C(=O)Nc2ccc(S(=O)(=O)O)cc2S(=O)(=O)O)cc(C(=O)Nc2ccc(S(=O)(=O)O)cc2S(=O)(=O)O)c1)Nc1cc(C(=O)Nc2ccc(S(=O)(=O)O)cc2S(=O)(=O)O)cc(C(=O)Nc2ccc(S(=O)(=O)O)cc2S(=O)(=O)O)c1 [NF449]
inhibition of ERK phosphorylation and activation [1]: inhibited | inhibition of proliferation (3T3-101P3A11 cells; 3T3-101P3A11 cells, 72 hours): 80% | inhibition of proliferation (3T3-101P3A11 cells; [2]): inhibited | effect on proliferation (3T3-101P3A11 cells; 72 hours): no effect | inhibition of proliferation (PC3-101P3A11 cells): inhibits

lipophosphatidic acid [LPA]
ERK phosphorylation by GPCR ligands ([1]; PC3-101P3A11 cells): significant ERK phosphorylation

COc1cc2ncnc(Nc3cccc(Br)c3)c2cc1OC [AG1517]
inhibition of 101P3A11 mediated ERK phosphorylation ([1]; PC3-101P3A11 cells treated with 10% FBS): partially inhibits | inhibition of EGF-mediated ERK phosphorylation ([1]; control and 101P3A11-expressing PC3 cells, EGF): completely inhibited; also recorded: inhibits

platelet activating factor [PAF]
ERK phosphorylation by GPCR ligands ([1]; PC3-101P3A11 cells): significant ERK phosphorylation

[Na+].[Na+].[Na+].[O]=[V]([O-])([O-])[O-] [Na3VO4, sodium orthovanadate]
increase in ERK phosphorylation ([1]; PC3-101P3A11 cells): 4.5 fold | increase in ERK phosphorylation ([1]; PC3-neo cells): two-fold increase

Cc1ccc(C(=O)Nc2ccc(S(=O)(=O)O)c3cc(S(=O)(=O)O)cc(S(=O)(=O)O)c23)cc1NC(=O)c1cccc(NC(=O)Nc2cccc(C(=O)Nc3cc(C(=O)Nc4ccc(S(=O)(=O)O)c5cc(S(=O)(=O)O)cc(S(=O)(=O)O)c45)ccc3C)c2)c1 [suramin]
inhibition of ERK phosphorylation and activation [1]: inhibited | inhibition of growth of 3T3-101P3A11 tumors (3T3-101P3A11 tumors): inhibits | inhibition of proliferation (3T3-101P3A11 cells; 3T3-101P3A11 cells, 72 hours): 60% | inhibition of proliferation (3T3-101P3A11 cells; [2]): inhibited | effect on proliferation (3T3-101P3A11 cells; 72 hours): no effect | inhibition of proliferation (PC3-101P3A11 cells): inhibits

COc1cccc(-c2cc(=O)c3ccccc3o2)c1N [PD98059]
inhibition of 101P3A11-mediated ERK phosphorylation ([1]; PC3-101P3A11 cells stimulated with FBS or GRP): inhibited

— US8236510B2, “Protein showing enhanced expression in cancer cells” (Agensys, Inc., priority 1999, dated 2012)
